Several values for one entry are separate records, joined by “and”; a condition that tells them apart may be missing. Identical values can stand only once.
System: patients with relapsed or refractory (R/R) AML
[1] = all patients (N = 40), onvansertib + LDAC or decitabine, patients n (%)
[2] = phase Ib, onvansertib + LDAC or decitabine

Experimental: Treatment plan and study design: Onvansertib was administered orally, in escalating doses, on days 1 through 5 in combination with either LDAC (arm A, 20 mg/m^2 subcutaneously once daily on days 1 through 10) or decitabine (arm B, 20 mg/m^2 intravenously over 1 hour on days 1 through 5) in a 28-day cycle. […] The primary objectives were to evaluate dose-limiting toxicities (DLTs) and the maximum tolerated dose (MTD) or recommended phase 2 dose (RP2D) of onvansertib. […] Each arm followed a standard 3+3 dose-escalation design, in which onvansertib dose was escalated by 50% increments. […] If a DLT was reported, an additional 3 patients were treated at that dose. If ≥2 patients experienced a DLT, the dose was considered nontolerated, and lower doses were explored in subsequent cohorts. […] The MTD was defined as the highest dose achieved at which no more than one of six subjects experienced a DLT. The RP2D was determined based on the assessment of safety, pharmacokinetics, and preliminary efficacy in subjects treated at a dose cleared for safety. For the study, the primary endpoint was to evaluate first-cycle dose-limiting toxicities and the MTD. Secondary and exploratory endpoints included safety, pharmacokinetics, antileukemic activity, and response biomarkers.
Safety: Patients were evaluable for safety if they had received at least one dose of onvansertib. […] Investigators assessed causality as either unrelated, unlikely, possibly, probably, or definitely related to study drugs. DLTs (defined in Table 1) were evaluated during the first cycle of treatment.

SMILES: CN1CCN(c2ccc(OC(F)(F)F)c(Nc3ncc4c(n3)-c3c(c(C(N)=O)nn3CCO)CC4)c2)CC1 [onvansertib, 1-(2-hydroxyethyl)-8-{[5-(4-methylpiperazin-1-yl)-2-(trifluoromethoxy)phenyl]amino}-4,5-dihydro-1H-pyrazolo [4,3-h] quinazoline-3-carboxamide]
- G3 stomatitis possibly related to onvansertib (3 patients: one at 60 mg/m^2, two at 90 mg/m^2): 8%
- patients discontinued from therapy because of treatment-related AEs (G2 fatigue, G3 mucositis (DLT), G4 rash (DLT)): Three
- Treatment-emergent AE: Anemia, All grades (%) [1]: 15 (37.5) %
- Treatment-emergent AE: Anemia, Grade 1-2 (%) [1]: 1 (2.5) %
- Treatment-emergent AE: Blood bilirubin increased, All grades (%) [1]: 4 (10) %
- Treatment-emergent AE: Blood bilirubin increased, Grace 3-4 (%) [1]: 1 (2.5) %
- Treatment-emergent AE: Blood bilirubin increased, Grade 1-2 (%) [1]: 3 (7.5) %
- Treatment-emergent AE: Constipation, All grades (%) [1]: 6 (15) %
- Treatment-emergent AE: Constipation, Grade 1-2 (%) [1]: 6 (15) %
- Treatment-emergent AE: Cough, All grades (%) [1]: 6 (15) %
- Treatment-emergent AE: Cough, Grade 1-2 (%) [1]: 6 (15) %
- Treatment-emergent AE: Decreased appetite, All grades (%) [1]: 6 (15) %
- Treatment-emergent AE: Decreased appetite, Grade 1-2 (%) [1]: 6 (15) %
- Treatment-emergent AE: Diarrhea, All grades (%) [1]: 8 (20) %
- Treatment-emergent AE: Diarrhea, Grade 1-2 (%) [1]: 8 (20) %
- Treatment-emergent AE: Dizziness, All grades (%) [1]: 5 (12.5) %
- Treatment-emergent AE: Dizziness, Grade 1-2 (%) [1]: 5 (12.5) %
- Treatment-emergent AE: Dyspnea, All grades (%) [1]: 10 (25) %
- Treatment-emergent AE: Dyspnea, Grace 3-4 (%) [1]: 2 (5) %
- Treatment-emergent AE: Dyspnea, Grade 1-2 (%) [1]: 8 (20) %
- Treatment-emergent AE: Edema, All grades (%) [1]: 8 (20) %
- Treatment-emergent AE: Edema, Grace 3-4 (%) [1]: 2 (5) %
- Treatment-emergent AE: Edema, Grade 1-2 (%) [1]: 6 (15) %
- Treatment-emergent AE: Epistaxis, All grades (%) [1]: 6 (15) %
- Treatment-emergent AE: Epistaxis, Grade 1-2 (%) [1]: 6 (15) %
- Treatment-emergent AE: Fatigue, All grades (%) [1]: 14 (35) %
- Treatment-emergent AE: Fatigue, Grade 1-2 (%) [1]: 14 (35) %
- Treatment-emergent AE: Febrile neutropenia, All grades (%) [1]: 12 (30) %
- Treatment-emergent AE: Headache, All grades (%) [1]: 4 (10) %
- Treatment-emergent AE: Headache, Grade 1-2 (%) [1]: 4 (10) %
- Treatment-emergent AE: Leukopenia, All grades (%) [1]: 5 (12.5) %
- Treatment-emergent AE: Leukopenia, Grace 3-4 (%) [1]: 12.5% and 5 (12.5) %
- Treatment-emergent AE: Lung infection, All grades (%) [1]: 4 (10) %
- Treatment-emergent AE: Lung infection, Grace 3-4 (%) [1]: 4 (10) %
- Treatment-emergent AE: Nausea/vomiting, All grades (%) [1]: 12 (30) %
- Treatment-emergent AE: Nausea/vomiting, Grade 1-2 (%) [1]: 12 (30) %
- Treatment-emergent AE: Neutropenia, All grades (%) [1]: 10 (25) %
- Treatment-emergent AE: Oropharyngeal pain, All grades (%) [1]: 4 (10) %
- Treatment-emergent AE: Oropharyngeal pain, Grade 1-2 (%) [1]: 4 (10) %
- Treatment-emergent AE: Pyrexia, All grades (%) [1]: 5 (12.5) %
- Treatment-emergent AE: Pyrexia, Grade 1-2 (%) [1]: 5 (12.5) %
- Treatment-emergent AE: Rash/pruritus, All grades (%) [1]: 11 (27.5) %
- Treatment-emergent AE: Rash/pruritus, Grace 3-4 (%) [1]: 1 (2.5) %
- Treatment-emergent AE: Rash/pruritus, Grade 1-2 (%) [1]: 10 (25) %
- Treatment-emergent AE: Stomatitis, All grades (%) [1]: 9 (22.5) %
- Treatment-emergent AE: Stomatitis, Grace 3-4 (%) [1]: 12.5% and 5 (12.5) %
- Treatment-emergent AE: Stomatitis, Grade 1-2 (%) [1]: 4 (10) %
- Treatment-emergent AE: Thrombocytopenia, All grades (%) [1]: 12 (30) %
- Treatment-emergent AE: Thrombocytopenia, Grade 1-2 (%) [1]: 2 (5) %
- G3 and G4 AE possibly related to onvansertib: anemia (all patients, N = 40): 12.5%
- G3 and G4 AE possibly related to onvansertib: leukopenia (all patients, N = 40): 5%
- G3 and G4 AE possibly related to onvansertib: neutropenia (all patients, N = 40): 15%
- G3 and G4 AE possibly related to onvansertib: thrombocytopenia (all patients, N = 40): 12.5%
- patients experiencing a DLT during the first cycle (arm B (decitabine), dose level 6 (90 mg/m^2), grade 3 mucositis and grade 4 rash): 2 of 6 and 2 of the 6
- MTD of onvansertib in combination with decitabine (arm B, oral days 1-5 + decitabine 20 mg/m^2 IV days 1-5, 28-day cycle): 60 mg/m^2
- DLTs (first five dose levels (12-60 mg/m^2), both arms (LDAC, decitabine)): no DLTs reported
- tolerability (first five dose levels (12-60 mg/m^2), with LDAC or decitabine): well tolerated
- skin toxicities (higher incidence and higher grade at 90 mg/m^2): observed at the last two dose levels of onvansertib (60 and 90 mg/m^2)
- SAEs considered as possibly related to onvansertib (of 71 SAEs): 13%
- patients with dose reduction of onvansertib due to hematologic toxicities (one from 18 mg/m^2, one from 27 mg/m^2 dose level): Two
- patients with SAEs (phase Ib, both arms): 33 patients
- total serious AEs (SAE) reported (phase Ib, both arms): 71
- Serious adverse event Aphasia: Number of events [2]: 1
- Serious adverse event Aphasia: Number of patients [2]: 1
- Serious adverse event Appendicitis: Number of events [2]: 1
- Serious adverse event Appendicitis: Number of patients [2]: 1
- Serious adverse event Arthralgia: Number of events [2]: 1
- Serious adverse event Arthralgia: Number of patients [2]: 1
- Serious adverse event Asthenia: Number of events [2]: 1
- Serious adverse event Asthenia: Number of patients [2]: 1
- Serious adverse event Atrial fibrillation: Number of events [2]: 1
- Serious adverse event Atrial fibrillation: Number of patients [2]: 1
- Serious adverse event Back pain: Number of events [2]: 1
- Serious adverse event Back pain: Number of patients [2]: 1
- Serious adverse event Disease progression: Number of events [2]: 1
- Serious adverse event Disease progression: Number of patients [2]: 1
- Serious adverse event Dyspnea: Number of events [2]: 1
- Serious adverse event Dyspnea: Number of patients [2]: 1
- Serious adverse event Edema peripheral: Number of events [2]: 1
- Serious adverse event Edema peripheral: Number of patients [2]: 1
- Serious adverse event Face edema: Number of events [2]: 1
- Serious adverse event Face edema: Number of patients [2]: 1
- Serious adverse event Febrile neutropenia: Number of events [2]: 25
- Serious adverse event Febrile neutropenia: Number of patients [2]: 17
- Serious adverse event Hematuria: Number of events [2]: 1
- Serious adverse event Hematuria: Number of patients [2]: 1
- Serious adverse event Hemorrhage intracranial: Number of events [2]: 1
- Serious adverse event Hemorrhage intracranial: Number of patients [2]: 1
- Serious adverse event Hyponatremia: Number of events [2]: 1
- Serious adverse event Hyponatremia: Number of patients [2]: 1
- Serious adverse event Infusion related reaction: Number of events [2]: 1
- Serious adverse event Infusion related reaction: Number of patients [2]: 1
- Serious adverse event Leukemic infiltration: Number of events [2]: 1
- Serious adverse event Leukemic infiltration: Number of patients [2]: 1
- Serious adverse event Lower gastrointestinal hemorrhage: Number of events [2]: 1
- Serious adverse event Lower gastrointestinal hemorrhage: Number of patients [2]: 1
- Serious adverse event Lung consolidation: Number of events [2]: 1
- Serious adverse event Lung consolidation: Number of patients [2]: 1
- Serious adverse event Lung infection: Number of events [2]: 5
- Serious adverse event Lung infection: Number of patients [2]: 5
- Serious adverse event Neck pain: Number of events [2]: 1
- Serious adverse event Neck pain: Number of patients [2]: 1
- Serious adverse event Neutrophil count decreased: Number of events [2]: 1
- Serious adverse event Neutrophil count decreased: Number of patients [2]: 1
- Serious adverse event Pain in jaw: Number of events [2]: 1
- Serious adverse event Pain in jaw: Number of patients [2]: 1
- Serious adverse event Palmar-plantar erythrodysaesthesia syndrome: Number of events [2]: 1
- Serious adverse event Palmar-plantar erythrodysaesthesia syndrome: Number of patients [2]: 1
- Serious adverse event Pharyngeal edema: Number of events [2]: 1
- Serious adverse event Pharyngeal edema: Number of patients [2]: 1
- Serious adverse event Physical deconditioning: Number of events [2]: 1
- Serious adverse event Physical deconditioning: Number of patients [2]: 1
- Serious adverse event Pleural effusion: Number of events [2]: 1
- Serious adverse event Pleural effusion: Number of patients [2]: 1
- Serious adverse event Pneumonia fungal: Number of events [2]: 1
- Serious adverse event Pneumonia fungal: Number of patients [2]: 1
- Serious adverse event Pneumonia: Number of events [2]: 3
- Serious adverse event Pneumonia: Number of patients [2]: 3
- Serious adverse event Pulmonary mass: Number of events [2]: 1
- Serious adverse event Pulmonary mass: Number of patients [2]: 1
- Serious adverse event Pyrexia: Number of events [2]: 2
- Serious adverse event Pyrexia: Number of patients [2]: 2
- Serious adverse event Rash maculo-papular: Number of events [2]: 1
- Serious adverse event Rash maculo-papular: Number of patients [2]: 1
- Serious adverse event Septic shock: Number of events [2]: 1
- Serious adverse event Septic shock: Number of patients [2]: 1
- Serious adverse event Seroma: Number of events [2]: 1
- Serious adverse event Seroma: Number of patients [2]: 1
- Serious adverse event Skin lesion: Number of events [2]: 1
- Serious adverse event Skin lesion: Number of patients [2]: 1
- Serious adverse event Soft tissue infection: Number of events [2]: 1
- Serious adverse event Soft tissue infection: Number of patients [2]: 1
- Serious adverse event Staphylococcal bacteremia: Number of events [2]: 1
- Serious adverse event Staphylococcal bacteremia: Number of patients [2]: 1
- Serious adverse event Stomatitis: Number of events [2]: 1
- Serious adverse event Stomatitis: Number of patients [2]: 1
- Serious adverse event Tumor lysis syndrome: Number of events [2]: 1
- Serious adverse event Tumor lysis syndrome: Number of patients [2]: 1
- Serious adverse event Urine output decreased: Number of events [2]: 1
- Serious adverse event Urine output decreased: Number of patients [2]: 1
- deaths while on treatment (phase Ib, all related to AML or its complications): Three
